Laboratory results as given in patent publication US12139492B2 (Endotarget Inc., priority 2021, dated 2024).
Where two headings read alike, the source gives them in different places.

Legend:
[1] = system: JeKo-1 cells; test: Antiproliferative effect, MTS cell viability assay, JeKo-1 cells; type: cell-based; details: Homo sapiens; JeKo-1 mantle cell lymphoma cells; read-out: IC50 (anti-proliferation) JeKO-1 cells
Summary of the method: (§1)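 Tested at six concentrations (0 to 10 μM in tenfold steps), 72 h; viability by MTS, A490.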

[2] = system: Mino cells; test: Antiproliferative effect, MTS cell viability assay, Mino cells; type: cell-based; details: Homo sapiens, MINO, Mino mantle cell lymphoma cells; read-out: IC50 (anti-proliferation) Mino cells
Summary of the method: as §1

[3] = biological target: BTK (Homo sapiens, UniProt Q06187); test: Degradation of BTK protein in Namalwa cells (Western blot; DC50, Dmax); details: for DC50: cell line not given
Chain of BTK (Q06187 whole entry): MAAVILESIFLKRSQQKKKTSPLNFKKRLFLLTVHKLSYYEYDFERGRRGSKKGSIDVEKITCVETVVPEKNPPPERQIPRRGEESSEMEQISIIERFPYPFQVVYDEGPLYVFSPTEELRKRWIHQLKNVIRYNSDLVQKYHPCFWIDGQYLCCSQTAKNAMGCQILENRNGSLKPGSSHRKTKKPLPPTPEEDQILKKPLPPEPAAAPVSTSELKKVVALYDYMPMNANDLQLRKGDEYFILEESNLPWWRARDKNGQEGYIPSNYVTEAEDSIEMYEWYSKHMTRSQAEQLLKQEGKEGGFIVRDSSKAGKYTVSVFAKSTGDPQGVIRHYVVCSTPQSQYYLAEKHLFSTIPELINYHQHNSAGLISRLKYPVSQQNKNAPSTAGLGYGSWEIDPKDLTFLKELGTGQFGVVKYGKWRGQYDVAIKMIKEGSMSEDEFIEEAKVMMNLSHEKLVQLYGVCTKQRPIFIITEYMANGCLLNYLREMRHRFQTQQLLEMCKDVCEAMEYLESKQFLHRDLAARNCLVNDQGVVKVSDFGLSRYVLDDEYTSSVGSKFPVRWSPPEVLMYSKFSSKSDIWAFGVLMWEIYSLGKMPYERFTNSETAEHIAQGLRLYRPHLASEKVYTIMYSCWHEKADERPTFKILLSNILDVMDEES

[4] = read-out: DC50 (BTK degradation), concentration giving 50% reduction of BTK expression level
[5] = read-out: Dmax (BTK degradation)

Structure (SMILES)	DC50 [3, 4] [nM]	Dmax [3, 5] [%]	Dmax [3] [%]	DC50 ([3]; BTK degradation) [nM]	IC50 [1] [nM]	IC50 [2] [nM]
NC1=NC=NC2C1C(c1ccc(Oc3ccccc3)cc1)=NN2[C@@H]1CCCN(C(=O)N2CCN(C3CN(c4ccc5c(c4)CN(C4CCC(=O)NC4=O)C5=O)C3)CC2)C1 (stereo partly drawn) [Compound 506, 3-(5-(3-(4-((3R)-3-(4-amino-3-(4-phenoxyphenyl)-3a,7a-dihydro-1H-pyrazolo[3,4-d]pyrimidin-1-yl)piperidine-1-carbonyl)piperazin-1-yl)azetidin-1-yl)-1-oxoisoindolin-2-yl)piperidine-2,6-dione]	10 to 50	> 90			< 1000	< 1000
Nc1ncnc2c1c(-c1ccc(Oc3ccccc3)cc1)nn2C1CCN(C2CCN(CCCCC#Cc3ccc(N4CCC(=O)NC4=O)cc3)C2)CC1 (stereo not shown) [Compound 536, 1-(4-(6-(3-(4-(4-amino-3-(4-phenoxyphenyl)-1H-pyrazolo[3,4-d]pyrimidin-1-yl)piperidin-1-yl)pyrrolidin-1-yl)hex-1-yn-1-yl)phenyl)dihydropyrimidine-2,4(1H,3H)-dione]	> 50	> 50			> 10000	> 10000
Nc1ncnc2c1c(-c1ccc(Oc3ccccc3)cc1)nn2C1CCN(C(=O)NCCN2CCN(c3ccc4c(c3)CN(C3CCC(=O)NC3=O)C4=O)CC2)CC1 (stereo not shown) [Compound 521, 4-(4-amino-3-(4-phenoxyphenyl)-1H-pyrazolo[3,4-d]pyrimidin-1-yl)-N-(2-(4-(2-(2,6-dioxopiperidin-3-yl)-1-oxoisoindolin-5-yl)piperazin-1-yl)ethyl)piperidine-1-carboxamide]	< 10	> 90			< 1000	< 1000
Nc1ncnc2c1c(-c1ccc(Oc3ccccc3)cc1)nn2C1CCN(CC2CCN(CC3CN(c4ccc5c(c4)C(=O)N(C4CCC(=O)NC4=O)C5=O)C3)CC2)CC1 (stereo not shown) [Compound 429, 5-(3-((4-((4-(4-amino-3-(4-phenoxyphenyl)-1H-pyrazolo(3,4-d)pyrimidin-1-yl)piperidin-1-yl)methyl)piperidin-1-yl)methyl)azetidin-1-yl)-2-(2,6-dioxopiperidin-3-yl)isoindoline-1,3-dione]	10 to 50	> 90			1000 to 10000	< 1000
Nc1ncnc2c1c(-c1ccc(Oc3ccccc3)cc1)nn2C1CCN(C2CCN(CCCN3CCC(c4ccc(N5CCC(=O)NC5=O)cc4)CC3)C2)CC1 (stereo not shown) [Compound 576, 1-(4-(1-(3-(3-(4-(4-amino-3-(4-phenoxyphenyl)-1H-pyrazolo[3,4-d]pyrimidin-1-yl)piperidin-1-yl)pyrrolidin-1-yl)propyl)piperidin-4-yl)phenyl)dihydropyrimidine-2,4(1H,3H)-dione]	< 10	> 90			< 1000	1000 to 10000
NC1=NC=NC2C1C(c1ccc(Oc3ccccc3)cc1)=NN2C1CCCN(C2CN(C(=O)N3CC(C4CN(c5ccc6c(c5)CN(C5CCC(=O)NC5=O)C6=O)C4)C3)C2)C1 (stereo not shown) [Compound 502]	10 to 50	> 90			< 1000	< 1000
NC(=O)c1c(-c2ccc(Oc3ccccc3)cc2)nn2c1NCCC2C1CCN(CC2CCN(CCC3CCN(c4ccc5c(c4)C(=O)N(C4CCC(=O)NC4=O)C5=O)CC3)CC2)CC1 (stereo not shown) [Compound 317, 7-(1-((1-(2-(1-(2-(2,6-dioxopiperidin-3-yl)-1,3-dioxoisoindolin-5-yl)piperidin-4-yl)ethyl)piperidin-4-yl)methyl)piperidin-4-yl)-2-(4-phenoxyphenyl)-4,5,6,7-tetrahydropyrazolo[1,5-a]pyrimidine-3-carboxamide]			> 75	> 50	> 10000	1000 to 10000
Nc1ncnc2c1c(-c1ccc(Oc3ccccc3)cc1)nn2C1CCN(C2CCN(CCN3CCN(c4ccc5c(c4)C(=O)N(C4CCC(=O)NC4=O)C5=O)CC3)CC2)CC1 (stereo not shown) [Compound 217, 5-(4-(2-(4-(4-amino-3-(4-phenoxyphenyl)-1H-pyrazolo[3,4-d]pyrimidin-1-yl)-[1,4′-bipiperidin]-1′-yl)ethyl)piperazin-1-yl)-2-(2,6-dioxopiperidin-3-yl)isoindoline-1,3-dione]			> 75	10 to 50	< 1000	1000 to 10000

Continued, in another order:

DC50 [3, 4] [nM]	Dmax [3, 5] [%]	Dmax [3] [%]	DC50 ([3]; BTK degradation) [nM]	Structure (SMILES)	IC50 [1] [nM]	IC50 [2] [nM]
		> 75	> 50	NC(=O)c1c(-c2ccc(Oc3ccccc3)cc2)nn2c1NCC[C@H]2C1CCN(CC2CCN(CCN3CCN(c4ccc5c(c4)CN(C4CCC(=O)NC4=O)C5=O)CC3)CC2)CC1 (stereo partly drawn) [Compound 332, (7S)-7-(1-((1-(2-(4-(2-(2,6-dioxopiperidin-3-yl)-1-oxoisoindolin-5-yl)piperazin-1-yl)ethyl)piperidin-4-yl)methyl)piperidin-4-yl)-2-(4-phenoxyphenyl)-4,5,6,7-tetrahydropyrazolo[1,5-a]pyrimidine-3-carboxamide]	1000 to 10000	1000 to 10000
		> 90	< 10	NC(=O)c1c(-c2ccc(Oc3ccccc3)cc2)nn2c1NCCC2C1CCN(CC2CCN(C(=O)N3CCC(N4CCC(c5ccc6c(c5)CN(C5CCC(=O)NC5=O)C6=O)CC4)CC3)CC2)CC1 (stereo not shown) [Compound 368, 7-(1-((1-(4-(2-(2,6-dioxopiperidin-3-yl)-1-oxoisoindolin-5-yl)-[1,4′-bipiperidine]-1′-carbonyl)piperidin-4-yl)methyl)piperidin-4-yl)-2-(4-phenoxyphenyl)-4,5,6,7-tetrahydropyrazolo[1,5-a]pyrimidine-3-carboxamide]	1000 to 10000	< 1000
10 to 50	> 90			NC(=O)c1c(-c2ccc(Oc3ccccc3)cc2)nn2c1NCC[C@H]2C1CCN(CC2CCN(C(=O)N3CCN(C4CCN(c5ccc6c(c5)CN(C5CCC(=O)NC5=O)C6=O)CC4)CC3)CC2)CC1 (stereo partly drawn) [Compound 402, (7S)-7-(1-((1-(4-(1-(2-(2,6-dioxopiperidin-3-yl)-1-oxoisoindolin-5-yl)piperidin-4-yl)piperazine-1-carbonyl)piperidin-4-yl)methyl)piperidin-4-yl)-2-(4-phenoxyphenyl)-4,5,6,7-tetrahydropyrazolo[1,5-a]pyrimidine-3-carboxamide]	1000 to 10000	< 1000
		> 90	< 10	NC(=O)c1c(-c2ccc(Oc3ccccc3)cc2)nn2c1NCC[C@H]2C1CCN(C2CCN(C(=O)N3CCN(C4CCN(c5ccc6c(c5)C(=O)N(C5CCC(=O)NC5=O)C6=O)CC4)CC3)CC2)CC1 (stereo partly drawn) [Compound 385, (7S)-7-(1′-(4-(1-(2-(2,6-dioxopiperidin-3-yl)-1,3-dioxoisoindolin-5-yl)piperidin-4-yl)piperazine-1-carbonyl)-[1,4′-bipiperidin]-4-yl)-2-(4-phenoxyphenyl)-4,5,6,7-tetrahydropyrazolo[1,5-a]pyrimidine-3-carboxamide]	1000 to 10000	< 1000
		> 50	> 50	NC(=O)c1c(-c2ccc(Oc3ccccc3)cc2)nn2c1NCCC2C1CCN(C2CCN(C(=O)N3CCN(Cc4ccc5c(c4)CN(C4CCC(=O)NC4=O)C5=O)CC3)CC2)CC1 (stereo not shown) [Compound 340, 7-(1′-(4-((2-(2,6-dioxopiperidin-3-yl)-1-oxoisoindolin-5-yl)methyl)piperazine-1-carbonyl)-[1,4′-bipiperidin]-4-yl)-2-(4-phenoxyphenyl)-4,5,6,7-tetrahydropyrazolo[1,5-a]pyrimidine-3-carboxamide]	> 10000	> 10000
